Holding throughout (type): biochemical
One test addresses TXK (Homo sapiens (Human), UniProt P42681). The test is described as follows: IC50 against TXK. As to conditions: for TXK/ITK: ratio of TXK IC50 to ITK IC50.
In the next test the target is JAK3 (Homo sapiens (Human), UniProt P52333). The experiment in a line: IC50 against JAK3.
In the next test the target is ITK (Homo sapiens (Human), UniProt Q08881). The test is described as follows: IC50 against ITK.
The target of a further test is BTK (Homo sapiens (Human), UniProt Q06187). The experiment in a line: IC50 against BTK.
Sequence of BTK (Q06187 whole entry, species assumed): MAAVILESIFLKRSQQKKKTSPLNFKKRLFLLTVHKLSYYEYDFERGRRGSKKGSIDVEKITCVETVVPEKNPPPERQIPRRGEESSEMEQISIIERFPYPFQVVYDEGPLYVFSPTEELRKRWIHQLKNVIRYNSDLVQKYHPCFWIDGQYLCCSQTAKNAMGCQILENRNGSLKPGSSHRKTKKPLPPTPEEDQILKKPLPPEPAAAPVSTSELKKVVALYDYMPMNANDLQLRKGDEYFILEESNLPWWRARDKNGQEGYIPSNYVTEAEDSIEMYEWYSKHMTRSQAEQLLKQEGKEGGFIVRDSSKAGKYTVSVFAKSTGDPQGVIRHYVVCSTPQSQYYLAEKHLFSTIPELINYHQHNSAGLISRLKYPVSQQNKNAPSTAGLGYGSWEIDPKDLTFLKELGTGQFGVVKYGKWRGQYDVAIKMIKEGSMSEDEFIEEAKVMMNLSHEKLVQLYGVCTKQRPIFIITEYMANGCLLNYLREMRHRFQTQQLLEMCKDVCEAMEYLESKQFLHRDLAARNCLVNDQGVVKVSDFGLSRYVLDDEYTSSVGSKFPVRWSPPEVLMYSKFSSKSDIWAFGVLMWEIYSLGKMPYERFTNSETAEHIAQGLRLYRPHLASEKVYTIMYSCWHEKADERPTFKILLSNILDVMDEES

Sequence of TXK (P42681 whole entry, species assumed): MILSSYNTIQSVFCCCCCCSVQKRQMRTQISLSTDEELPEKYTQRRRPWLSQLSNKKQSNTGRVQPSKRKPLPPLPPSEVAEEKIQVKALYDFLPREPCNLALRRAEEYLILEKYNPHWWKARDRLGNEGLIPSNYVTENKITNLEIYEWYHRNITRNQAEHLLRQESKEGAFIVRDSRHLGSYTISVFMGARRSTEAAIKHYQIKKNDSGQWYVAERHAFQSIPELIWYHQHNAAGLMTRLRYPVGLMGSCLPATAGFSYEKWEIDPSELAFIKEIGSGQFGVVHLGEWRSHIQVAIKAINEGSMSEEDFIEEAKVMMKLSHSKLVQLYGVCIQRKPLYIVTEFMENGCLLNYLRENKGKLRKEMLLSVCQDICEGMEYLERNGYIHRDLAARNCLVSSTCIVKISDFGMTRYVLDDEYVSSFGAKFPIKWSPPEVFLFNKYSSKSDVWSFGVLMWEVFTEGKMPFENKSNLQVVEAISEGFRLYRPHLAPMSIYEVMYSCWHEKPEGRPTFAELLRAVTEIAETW
Sequence of JAK3 (P52333 whole entry, species assumed): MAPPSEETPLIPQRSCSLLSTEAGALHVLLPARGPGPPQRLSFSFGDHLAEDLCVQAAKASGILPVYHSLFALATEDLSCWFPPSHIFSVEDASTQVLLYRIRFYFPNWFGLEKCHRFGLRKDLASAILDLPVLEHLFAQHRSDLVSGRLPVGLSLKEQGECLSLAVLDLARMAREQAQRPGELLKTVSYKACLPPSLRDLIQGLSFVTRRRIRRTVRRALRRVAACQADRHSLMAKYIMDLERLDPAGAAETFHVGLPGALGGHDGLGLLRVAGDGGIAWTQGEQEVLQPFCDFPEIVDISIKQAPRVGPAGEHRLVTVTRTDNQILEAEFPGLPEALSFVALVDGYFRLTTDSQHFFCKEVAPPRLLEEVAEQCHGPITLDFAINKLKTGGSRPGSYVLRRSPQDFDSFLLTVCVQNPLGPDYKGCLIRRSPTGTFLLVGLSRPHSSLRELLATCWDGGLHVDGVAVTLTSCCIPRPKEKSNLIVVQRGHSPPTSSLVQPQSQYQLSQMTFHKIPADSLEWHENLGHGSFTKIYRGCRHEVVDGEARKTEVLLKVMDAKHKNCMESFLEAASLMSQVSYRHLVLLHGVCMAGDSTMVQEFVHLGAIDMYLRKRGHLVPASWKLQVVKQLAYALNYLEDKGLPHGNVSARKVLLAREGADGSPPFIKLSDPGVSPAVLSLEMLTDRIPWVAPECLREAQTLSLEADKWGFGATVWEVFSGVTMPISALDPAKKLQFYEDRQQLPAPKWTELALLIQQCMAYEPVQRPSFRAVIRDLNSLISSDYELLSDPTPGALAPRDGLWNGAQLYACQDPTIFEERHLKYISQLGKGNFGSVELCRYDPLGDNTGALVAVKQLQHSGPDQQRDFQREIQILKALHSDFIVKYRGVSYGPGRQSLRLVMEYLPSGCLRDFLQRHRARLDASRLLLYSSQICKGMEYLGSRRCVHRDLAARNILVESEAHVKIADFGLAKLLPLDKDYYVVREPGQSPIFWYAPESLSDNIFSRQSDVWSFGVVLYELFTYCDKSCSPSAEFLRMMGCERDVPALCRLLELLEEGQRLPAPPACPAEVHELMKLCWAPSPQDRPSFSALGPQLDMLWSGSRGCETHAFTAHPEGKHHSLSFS
Sequence of ITK (Q08881 whole entry): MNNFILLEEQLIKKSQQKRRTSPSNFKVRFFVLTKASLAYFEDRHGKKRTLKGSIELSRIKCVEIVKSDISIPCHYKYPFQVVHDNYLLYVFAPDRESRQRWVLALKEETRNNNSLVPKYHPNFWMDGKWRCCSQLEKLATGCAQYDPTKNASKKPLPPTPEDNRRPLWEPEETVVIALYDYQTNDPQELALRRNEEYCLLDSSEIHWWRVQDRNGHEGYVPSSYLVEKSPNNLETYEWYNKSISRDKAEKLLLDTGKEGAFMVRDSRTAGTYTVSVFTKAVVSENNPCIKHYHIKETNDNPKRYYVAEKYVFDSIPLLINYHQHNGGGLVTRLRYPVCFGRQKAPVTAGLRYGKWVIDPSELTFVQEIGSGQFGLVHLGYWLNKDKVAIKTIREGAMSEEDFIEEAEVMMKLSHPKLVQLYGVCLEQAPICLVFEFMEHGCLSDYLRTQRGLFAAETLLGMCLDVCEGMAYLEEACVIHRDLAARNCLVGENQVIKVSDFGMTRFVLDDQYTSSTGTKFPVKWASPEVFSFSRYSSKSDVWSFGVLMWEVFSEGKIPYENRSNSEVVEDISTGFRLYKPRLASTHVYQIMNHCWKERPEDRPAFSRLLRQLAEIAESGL

`C=CC(=O)N1CCN(C(=O)c2cc(Sc3cnc(NC(=O)c4cnn(C)c4)s3)c(C)cc2C)CC1` [Compound 108]: the IC50 – broadly, the concentration that gives 50% inhibition – at TXK was 10 to 100 nM; against JAK3, 100 to 1000 nM; at ITK, < 10 nM; against BTK it was 100 to 1000 nM. In addition, at TXK, the TXK/ITK stood at 12.1.

For `C=CC(=O)N1CCCN(C(=O)c2cc(Sc3cnc(NC(=O)C4CC4)s3)ccc2OC)C[C@H]1C` [Compound 77], the IC50 on TXK is 1000 to 10000 nM; against JAK3 it was 1000 to 10000 nM; at ITK, 10 to 100 nM; against BTK, ≥ 10000 nM. On TXK, the TXK/ITK is reported as 95.398.

With `C=CC(=O)N1CCCN(C(=O)c2cc(Sc3cnc(NC(=O)C4CC4)s3)c(C)cc2C)C[C@H]1C` [Compound 59], the IC50 at TXK was 100 to 1000 nM; against JAK3 it was 1000 to 10000 nM; on ITK it was < 10 nM; on BTK, 1000 to 10000 nM. The TXK/ITK on TXK stood at 166.05.

Take `C=CC(=O)N1CCN(C(=O)c2cc(Sc3cnc(NC(=O)C4CC4)s3)c(C)cc2OC)CC1(C)C` [Compound 16]: the IC50 against TXK fell in the range of 10 to 100 nM; at JAK3, 100 to 1000 nM; against ITK, 10 to 100 nM; on BTK it was 100 to 1000 nM. The TXK/ITK on TXK is 4.9287.

Take `C=CC(=O)N1CCCN(C(=O)c2cc(Sc3cnc(NC(=O)c4cnsc4)s3)c(C)cc2C)C[C@H]1CC` [Compound 123]: the IC50 on TXK is 100 to 1000 nM; against JAK3, 1000 to 10000 nM; against ITK it was < 10 nM; at BTK it was 100 to 1000 nM. Besides, the TXK/ITK on TXK turned out to be 144.0.

With `C=CC(=O)N1CCCN(C(=O)c2cc(Cc3cnc(NC(=O)C4CC4)s3)c(C)cc2C)C[C@H]1C` [Compound 127], the IC50 was 100 to 1000 nM against TXK, ≥ 10000 nM on JAK3, 10 to 100 nM at ITK and 100 to 1000 nM at BTK. Further, the TXK/ITK at TXK stood at 7.6.

For `C=CC(=O)N1CCN(C(=O)c2cc(Sc3cnc(NC(=O)C4CC4)s3)c(C)cc2OC)C[C@@H]1C` [Compound 22], the half-maximal inhibitory concentration (IC50) is 10 to 100 nM on TXK, 100 to 1000 nM against JAK3, < 10 nM at ITK and 100 to 1000 nM on BTK. Besides, the TXK/ITK at TXK was 6.7674.

For `C=CC(=O)N1CCN(C(=O)c2cc(Sc3cnc(NC(=O)C4CC4)s3)c(C)cc2OC)CC[C@H]1C` [Compound 54], the IC50 fell in the range of 10 to 100 nM against TXK, 1000 to 10000 nM on JAK3, 10 to 100 nM at ITK and 1000 to 10000 nM against BTK. In addition, the TXK/ITK at TXK is listed as 0.804.

Take `C=CC(=O)N1CCCN(C(=O)c2cc(Sc3cnc(Nc4ccccn4)s3)c(C)cc2OC)C[C@H]1C(C)C` [Compound 147, (R)-l-(2-isopropyl-4-(2-methoxy-4-methyl-5-((2-(pyridin-2-ylamino)thiazol-5-yl)thio)benzoyl)-1,4-diazepan-1-yl)prop-2-en-1-one]: the IC50 against TXK is 100 to 1000 nM; against JAK3 it was 1000 to 10000 nM; against ITK, < 10 nM; against BTK it was 10 to 100 nM. Besides, the TXK/ITK on TXK came to 29.58.

With `C=CC(=O)N1CC[C@@H](N(C)C(=O)c2cc(Sc3cnc(NC(=O)c4ccsc4)s3)c(C)cc2OC)C1` [Compound 146, (R)-N-(5-((5-((1-acryloylpyrrolidin-3-yl)(methyl)carbamoyl)-4-methoxy-2-methylphenyl)thio)thiazol-2-yl)thiophene-3-carboxamide], the IC50 against TXK, on JAK3, at ITK and against BTK was < 10 nM each time. Moreover, at TXK, the TXK/ITK is given as 3.19.

On to `C=CC(=O)N1CC[C@@H](N(C)C(=O)c2cc(Sc3cnc(NC(C)=O)s3)c(C)cc2OC)C1` [Compound 28], for which the IC50 at TXK is 10 to 100 nM; against JAK3, 10 to 100 nM; against ITK, < 10 nM; against BTK it was < 10 nM. Also, the TXK/ITK on TXK was determined as 5.5925.

In the case of `C=CC(=O)N1C[C@@H]2C[C@H]1CN2C(=O)c1cc(Sc2cnc(NC(=O)C3CC3)s2)c(C)cc1OC` [Compound 23], the IC50 at TXK is < 10 nM; against JAK3, 10 to 100 nM; at ITK it was < 10 nM; on BTK it was < 10 nM. The TXK/ITK at TXK was found to be 1.4139.

As for `C=CC(=O)N1CCN(C(=O)c2cc(Sc3cnc(NC(=O)C4CC4)s3)c(C)cc2OC)C[C@H]1CC` [Compound 42], the IC50 was 10 to 100 nM against TXK, 1000 to 10000 nM on JAK3, < 10 nM against ITK and 1000 to 10000 nM on BTK. The TXK/ITK at TXK is 10.152.

Take `C=CC(=O)N1CCN(C(=O)c2cc(Sc3cnc(NC(=O)C4CCC4)s3)c(C)cc2OC)CC1` [Compound 84]: the concentration for half-maximal inhibition (IC50) was 10 to 100 nM on TXK, 1000 to 10000 nM against JAK3, < 10 nM against ITK and 1000 to 10000 nM against BTK. On TXK, the TXK/ITK turned out to be 21.948.

As for `C=CC(=O)N1CCCN(C(=O)c2cc(Sc3cnc(NC(=O)C4CC4)s3)c(F)cc2C)C[C@H]1C` [Compound 83], the IC50 on TXK was 1000 to 10000 nM; against JAK3 it was 1000 to 10000 nM; against ITK it was 10 to 100 nM; on BTK, ≥ 10000 nM. Also, the TXK/ITK at TXK is recorded as 45.317.

In the case of `C=CC(=O)N1CCN(C(=O)c2cc(Sc3cnc(NC(=O)c4cccc(CN(C)C)c4)s3)c(C)cc2OC)C[C@H]1C#N` [Compound 124], the IC50 against TXK, against JAK3, on ITK and on BTK was < 10 nM each time.

In the case of `C=CC(=O)N1CCCN(C(=O)c2cc(Sc3cnc(NC(=O)CN(C)C)s3)c(C)cc2OC)CC1` [Compound 35], the 50% inhibitory concentration (IC50) is ≥ 10000 nM at TXK, ≥ 10000 nM on JAK3, 100 to 1000 nM on ITK and ≥ 10000 nM against BTK. The TXK/ITK at TXK was determined as 48.433.

Take `C=CC(=O)N1CCN(C(=O)c2cc(C(C)c3cnc(NC(=O)C4CC4)s3)c(C)cc2OC)CC1` (centres unmarked) [Compound 140]: the IC50 is 10 to 100 nM at TXK, 1000 to 10000 nM on JAK3, < 10 nM at ITK and 10 to 100 nM against BTK. In addition, at TXK, the TXK/ITK amounted to 2.66.

With `C=CC(=O)N1CCN(C(=O)c2cc(Sc3cnc(Nc4ccccn4)s3)c(C)cc2C)CC1` [Compound 133], the IC50 is < 10 nM at TXK, 10 to 100 nM against JAK3, < 10 nM against ITK and 10 to 100 nM on BTK. For the same compound, the TXK/ITK on TXK is reported as 4.6.

For the compound `C=CC(=O)N1CCN(C(=O)c2cc(Sc3cnc(Nc4ccccn4)s3)c(Cl)cc2C)CC1` [Compound 126], the IC50 at TXK was 10 to 100 nM; on JAK3 it was 10 to 100 nM; against ITK, < 10 nM; at BTK it was 10 to 100 nM. Moreover, the TXK/ITK at TXK is reported as 13.5.

On to `C=CC(=O)N1CCN(C(=O)c2cc(Sc3cnc(NC(C)=O)s3)c(C)cc2OC)C[C@@H]1C` [Compound 12], for which the IC50 against TXK lay in the range of 100 to 1000 nM; against JAK3 it was 100 to 1000 nM; on ITK, 10 to 100 nM; against BTK, 100 to 1000 nM. Moreover, the TXK/ITK at TXK was 14.784.

In the case of `C=CC(=O)N1CCCN(C(=O)c2cc(Sc3cnc(NC(=O)c4cccc(CN(C)C)c4)s3)c(C)cc2OC)C[C@H]1C` [Compound 48], the IC50 was ≥ 10000 nM on TXK, ≥ 10000 nM at JAK3, 10 to 100 nM on ITK and 1000 to 10000 nM against BTK. At TXK, the TXK/ITK was determined as 519.55.

As to `C=CC(=O)N1CCN(C(=O)c2cc(Sc3cnc(NC(=O)C4CC4)s3)ccc2OC)C[C@H]1C` [Compound 79], the IC50 against TXK was 100 to 1000 nM; against JAK3 it was 100 to 1000 nM; at ITK, 10 to 100 nM; against BTK it was ≥ 10000 nM. Further, the TXK/ITK at TXK amounted to 21.331.

For the compound `C=CC(=O)N1CCCN(C(=O)c2cc(Sc3cnc(NC(=O)C4CC4)s3)c(C)cc2OC)CC1` [Compound 25], the IC50 against TXK was 10 to 100 nM; at JAK3, 100 to 1000 nM; against ITK, < 10 nM; against BTK, 100 to 1000 nM. Besides, at TXK, the TXK/ITK is 20.879.

For `C=CC(=O)N1CCN(C(=O)c2cc(Sc3cnc(NC(=O)C4CC4)s3)c(C)cc2OC)[C@@H](C)C1` [Compound 19], the IC50 against TXK is < 10 nM; on JAK3, 100 to 1000 nM; at ITK, < 10 nM; on BTK, 10 to 100 nM. Further, the TXK/ITK at TXK was found to be 6.5873.

For `C=CC(=O)N1CCCN(C(=O)c2cc(Sc3cnc(NC(=O)C4CC4)s3)c(C)cc2OC)[C@@H](C)C1` [Compound 72], the IC50 on TXK is 1000 to 10000 nM; against JAK3 it was ≥ 10000 nM; against ITK, 100 to 1000 nM; against BTK, ≥ 10000 nM. The TXK/ITK at TXK came out at 1.1846.

With `C=CC(=O)N1CCCN(C(=O)c2cc(Sc3cnc(NC(=O)C4CC4)s3)c(C)cc2CC)C[C@H]1C` [Compound 105], the IC50 on TXK is 100 to 1000 nM; on JAK3 it was 1000 to 10000 nM; at ITK, < 10 nM; on BTK, 100 to 1000 nM. Besides, the TXK/ITK at TXK was 12.3.

As to `C=CC(=O)N1CCN(C(=O)c2cc(Sc3cnc(NC(C)=O)s3)c(C)cc2OC)[C@@H](C)C1` [Compound 9], the IC50 was 10 to 100 nM at TXK, 100 to 1000 nM against JAK3, < 10 nM on ITK and 100 to 1000 nM at BTK. In addition, the TXK/ITK on TXK turned out to be 14.236.

For `C=CC(=O)N1CCN(C(=O)c2cc(Sc3cnc(NC(=O)c4cccnc4)s3)c(C)cc2OC)CC1` [Compound 89], the IC50 at TXK was 100 to 1000 nM; on JAK3, 1000 to 10000 nM; at ITK it was < 10 nM; against BTK, 100 to 1000 nM. In addition, the TXK/ITK at TXK turned out to be 45.743.

In the case of `C=CC(=O)N1CCN(C(=O)c2cc(Sc3cnc(NC(=O)C4CC4)s3)c(C)cc2C)CC1` [Compound 73], the IC50 was 10 to 100 nM on TXK, 100 to 1000 nM against JAK3, < 10 nM on ITK and 100 to 1000 nM on BTK. The TXK/ITK at TXK is given as 3.2627.
